Source: patent US20260048072A1, “PHARMACEUTICAL PREPARATION FOR INTRANASAL ADMINISTRATION AND PREPARATION METHOD THEREFOR” (CHENGDU EASTON BIOPHARMACEUTICALS CO., LTD., priority 2023, published 2026)

Key:
Format in all cases: in vivo
Details in all cases: beagle dogs, nasal spray, result in words
[1] = Experimental Example 3: pharmacokinetic experiment, nalmefene in plasma by LC-MS/MS
Method: Beagle dogs (body weight of 8 kg-10 kg, supplier: Chengdu Dossy Experimental Animal Co., Ltd., license number: SCXK(1)2019-031)
(§1) • EDTA-K2 anticoagulant tube: brand Kangweishi (KWS) • Liquid chromatograph (Shimadzu, LC-30AD), mass spectrometer (SCIEX Triple Quad 4500) • LC-MS/MS detection conditions: • Instrument: UPLC-MS/MS (AB API 4500) • MS conditions: Electrospray ionization (ESI) source, positive ion detection
(§2) HPLC conditions: mobile phase A: 90% water+10% acetonitrile+0.1% formic acid+2 mM ammonium acetate; mobile phase B: 90% acetonitrile+10% water+0.1% formic acid+2 mM ammonium acetate; chromatographic column: Waters ACQUITY UPLC BEH C18 (2.1×50 mm, 1.7 μm); flow rate: 0.50 mL/min; chromatographic column temperature: 40° C.
(§3) Experimental method of nasal administration for Example 3: Four beagle dogs were administered with 1 dose of a nasal spray preparation of nalmefene hydrochloride by nasal spray respectively, and 2 mL of blood was collected from the forelimb vein before administration and at 2 min, 5 min, 10 min, 15 min, 30 min, 45 min, 1 h, 2 h, 4 h and 6 h after administration. The blood sample was placed in an EDTA-K2 anticoagulant tube, centrifuged at 4500 r/min for 10 min, and 50 μL of plasma was separated into a centrifuge tube. […] The content of nalmefene in the plasma was detected by LC-MS/MS. […]

[2] = Experimental Example 2: pharmacokinetic experiment, nalmefene in plasma by LC-MS/MS
Text: Beagle dogs (body weight of 12 kg-15 kg, supplier: Suzhou Xishan Zhongke Experimental Animal Co., Ltd., license number: SCXK(Su)2018-0001)
• EDTA-K2 anticoagulant tube: brand Kangweishi (KWS) • Liquid chromatograph (Shimadzu, LC-30AD), mass spectrometer (SCIEX Triple Quad 4500) • LC-MS/MS detection conditions: • Instrument: UPLC-MS/MS (AB API 4500) • MS conditions: Electrospray ionization (ESI) source, positive ion detection […]
as §3, with “1:” for “3:”, “administration.” for “administration. The blood sample was placed in an EDTA-K2 anticoagulant tube, centrifuged at 4500 r/min for 10 min, and 50 μL of plasma was separated into a centrifuge tube.”
Experimental method of intramuscular injection for Comparative Example 2: Four beagle dogs were administered 1 dose of an injection of nalmefene hydrochloride (1.5 ml: 1.5 mg) intramuscularly respectively, and 2 mL of blood was collected from the forelimb vein before administration and at 2 min, 5 min, 10 min, 15 min, 30 min, 45 min, 1 h, 2 h, 4 h and 6 h after administration. […] The content of nalmefene in the plasma was detected by LC-MS/MS.

[3] = Experimental Example 4: pharmacokinetic experiment, nalmefene in plasma by LC-MS/MS
Text: Beagle dogs (body weight of 8 kg-10 kg, supplier: Suzhou Xishan Zhongke Experimental Animal Co., Ltd. and Chengdu Dossy Experimental Animal Co., Ltd., license numbers: SCXK(Su)2018-0001 and SCXK(1)2019-031)
as §1, §2
as §3, with “9:” for “3:”, “administration.” for “administration. The blood sample was placed in an EDTA-K2 anticoagulant tube, centrifuged at 4500 r/min for 10 min, and 50 μL of plasma was separated into a centrifuge tube.”

- effect to accelerate the absorption of nalmefene hydrochloride in the nasal cavity compared with n-dodecyl-β-D-maltoside [1]: superior
- absorption of nalmefene hydrochloride in the nasal cavity, compared with not using dodecylphosphocholine [2]: significantly accelerate
- effect to accelerate the absorption of nalmefene hydrochloride in the nasal cavity compared with n-dodecyl-β-D-maltoside [3]: superior
Compound: CCCCCCCCCCCCOP(=O)([O-])OCC[N+](C)(C)C [dodecylphosphocholine, Dodecylphosphocholine]
